Experimental data reported in US9850205B2, “Stable apremilast crystalline form II free of solvate and method of making the same” (UTOPHARM (SHANGHAI) CO., LTD, priority 2015, dated 2017).

Legend:
[1] = Comparison of pharmacokinetics in Beagle dogs (oral capsule of crude drug powder, LC-MS/MS plasma concentration); format: in vivo; conditions: both sexes, dog, 30 mg crude drug powder capsule, single period
Experimental: 6 healthy Beagle dogs weight 6-8 kg with half males and half females were divided randomly into 2 groups, each group having 3.
According to the administration route and dosage amounts, medicine is administrated orally and the dosage is 30 mg/dog/time. After crude drug powder of two crystal forms being weighed about 30 mg respectively, capsule shell is used to be filled and 10 ml water is used accompanied with administration. The Beagle dogs were fasted for 12 hours before the study, and food is provided in 4 hours after administration. Water deprivation was not required during the whole study. Specific administration groups are designed in the table as below.
0.5ml venous blood was collected via the small saphenous veins 10, 30 min, 1, 2, 4, 6, 8, 10, 12, 24, 48 and 72 h before (0 hour) or after administration. After centrifugation for 5 minutes at 8000 rpm, blood plasma is separated out and placed in anti freezing plastic test tube for storing in refrigerator at −20 C temporarily.
Concentration of APST in blood plasma is tested by LC-MS/MS method. The linearity range of APST testing is 5 to 5000 ng/ml, and the linear is good.

[2] = Electrostatic effect under the same micronization condition; format: physicochemical
Excerpt: Large electrostatic effect will adversely affect the preparation processing.

[3] = Solubility of Form II and Form B in common solvents; format: physicochemical; conditions: acetone, butanone, ethyl alcohol, methanol, ethyl acetate, acetonitrile, dichloromethane, tetrahydrofuran, petroleum ether, n-hexane, water
Experimental: The solubility of Form II and Form B in common solvents such as acetone, butanone, ethyl alcohol, methanol, ethyl acetate, acetonitrile, dichloromethane, tetrahydrofuran, petroleum ether, n-hexane, water was tested and compared.

[4] = Thermostability experiments: forms suspended in water and stirred at 60 and 100° C.; format: physicochemical; conditions: for increased amount of related substance, N-deacetylates: stirred in water at 100° C. for 48 h; for electrostatic effect: suspended in water at 100° C., stirred 24 h, filtered and dried; for DSC / X-ray powder diffraction (change) / melting temperature (change) / X-ray powder diffraction pattern (change): suspended in water; for melting temperature (change): numbers are decreases
Experimental: Apremilast Crystalline Form II and Form B were suspended in water and stirred for 24-48 h under 60 and 100° C., respectively, then cooled, filtered, and dried, and X-ray powder diffraction patterns, DSC patterns, melting temperature and related substance were determined (see Table 4).
Apremilast Crystalline Form II and Form B were suspended in water, respectively, stirred at 60-100° C. for 48 h sampled at a certain time interval and filtered, dried to determine the change of melting temperature; sampled at 24 h, 48 h, filtered and dried to determine change of XRPD patterns, DSC patterns, melting temperature, electrostatic effects, and related substances.

[5] = Influence factors (stability) experiments of Form I, Form II and Form B; format: physicochemical
Excerpt: 2. Influence factors experiments of Form I, Form II and Form B:
In addition, the same batch of raw materials was crystallized in acetone/ethyl alcohol to produce Form B and crystallized in acetone/water to produce Form I and Form II, then compare the appearance and color of the products.

[6] = In vivo pharmacokinetic comparison study in SD rats (gavage, LC-MS/MS plasma concentration); conditions: for AUC(0-t) / Cmax / Tmax: SD (Sprague-Dawley), rat, plasma, po, gavage 10 mg/kg suspension; for AUC(0-t): read-out: area under the curve AUC0-t; for Cmax: read-out: peak concentrations Cmax; for Tmax: 10 mg/kg
Experimental: Twelve SD rats weight 200-220 g with half males and half females were divided randomly into 2 groups (named as group A and group B).
According to the administration route and dosage amounts provided in FDA references, the two crystalline forms were given by gavage to investigate their pharmacokinetic behaviors in rats. The dosage amounts of the two forms are both 10 mg/kg (solvent is 1% carboxymethylcellulose). The rats were fasted for 12 hs before the study, food was provided 4 hs after administration, water deprivation was not required during the whole study. • Blood was collected via the fundus venous plexus 10, 30mins, 1, 2, 4, 6, 8, 10, 12 and 24 hs after administration. The collected blood was placed on ice and centrifuged for 5min at 8000 rpm, plasma was separated, and cryoperserved in a −20° C. refrigerator. LC-MS/MS was used to determine the concentration of APST in plasma. Linearity range of APST in plasma is 2-1000ng/ml, the linearity was good.

[7] = Crystalline form conversion study, suspension in acetone/water at reflux; format: physicochemical; conditions: suspended in acetone/water (1:3), refluxing temperature; Form B 36 h, Form D 8-10 h
Experimental: In addition, pure Form II can obtained by suspending crashed Forms A, B, C, D, E, F and/or G in acetone/water and stirring at 50° C. to refluxing temperature for 1-48 h.
Apremilast Crystalline Form B (5.0 g, particle size less than 300 mesh) was suspended in 60 ml acetone/water (1:3), heated to refluxing temperature and stirred for 36 h, then cooled while stirring, filtered, dried at 60° C. to obtain about 4.88 g of Apremilast Crystalline Form II, mp:148.3-150.3° C.
Apremilast Crystalline Form D (5.0 g, particle size less than 200mesh) was suspended in 60m1 acetone/water (1:3), heated to refluxing temperature and stirred for 8-10 h, then cooled while stirring, filtered, dried at 60° C. to obtain about 4.60 g of Apremilast Crystalline Form II, mp:148.3-150.5° C.

[8] = both sexes, SD rats, males and females together, read-out: time to peak Tmax
[9] = both sexes, SD rats, males and females together, read-out: time to peak Tmax (median)
[10] = both sexes, SD rats, males and females together
[11] = female, female rats, read-out: time to peak Tmax
[12] = female, female rats, read-out: time to peak Tmax (median)
[13] = male, male rats, read-out: time to peak Tmax
[14] = male, male rats, read-out: time to peak Tmax (median)

SMILES	AUC(0-inf) [1]	AUC(0-t) [1]	Cmax [1]	Tmax [1]	electrostatic effect [2]	solubility, Form II compared with Form B [3]	increased amount of related substance, N-deacetylates [4]	electrostatic effect [4]	DSC ([4]; 60° C., 48 h)	X-ray powder diffraction (change) ([4]; 60° C., 48 h)	melting temperature (change) ([4]; 60° C., 48 h)	X-ray powder diffraction pattern (change) ([4]; 100° C., 24~48 h)	melting temperature (change) ([4]; 100° C., 24~48 h)	stability under high temperature and high humidity conditions [5]	Change of related substance/high temperature for 10 days [5]	moisture absorption/humidity 92.5% Change of related substances [5]	moisture absorption/humidity 92.5% weight gain [5]	Change of related substances/light exposure for 10 days [5]	AUC(0-t) ([6]; female rats)	Cmax ([6]; female rats)	other results
CCOc1cc(C(CS(C)(=O)=O)N2C(=O)c3cccc(NC(C)=O)c3C2=O)ccc1OC (single isomer, unassigned; (+)) [Form II, (+)-2-[1-(3-ethoxy-4-methoxyphenyl)-2-methylsulfonylethyl]-4-acetylaminoisoindoline-1,3-dione]	38.2 ± 13 µg·h/mL	37.7 ± 22.4 µg·h/mL	2.05 ± 0.357 µg/mL	9 ± 13 h	weak or no electrostatic effect	essentially no difference	0.046%	essentially no electrostatic effect	150 °C	essentially no	essentially no	essentially no	essentially no	stable	Essentially no	essentially no	<1.0%	essentially no	10.6 ± 1.05 µg·h/mL	0.906 ± 0.179 µg/mL	DSC ([4]; 100° C., 24~48 h): 150 °C; AUC(0-t) ([6]; male rats): 0.446 ± 0.0813 µg·h/mL; Cmax ([6]; male rats): 0.108 ± 0.0161 µg/mL; Tmax [6, 8]: 1 to 6 h; Tmax [6, 9]: 3 h; AUC(0-t) [6, 10]: 5.53 ± 5.61 µg·h/mL; Cmax [6, 10]: 0.507 ± 0.452 µg/mL; exposure of Form II relative to the exposure of Form B ([6]; female SD rats): 1.5 times; Tmax [6, 11]: 4 to 6 h; Tmax [6, 12]: 6 h; Tmax [6, 13]: 1 to 2 h; Tmax [6, 14]: 1 h
CCOc1cc([C@@H](CS(C)(=O)=O)N2C(=O)c3cccc(NC(C)=O)c3C2=O)ccc1OC [Form B, (+)-2-[1-(3-ethoxy-4-methoxyphenyl)-2-methylsulfonylethyl]-4-acetylaminoisoindoline-1,3-dione]	38.5 ± 20.5 µg·h/mL	38 ± 20.5 µg·h/mL	2.41 ± 0.377 µg/mL	1.7 ± 0.6 h	higher electrostatic effect	essentially no difference	0.059%	serious electrostatic effect	157 °C	weak	Decreased 2-3 °C	Weak absorption	Decreased 3-4 °C	stable	–	–	<1.0%	–	7 ± 1.14 µg·h/mL	0.904 ± 0.0285 µg/mL	AUC(0-t) ([6]; male rats): 0.53 ± 0.0701 µg·h/mL; Cmax ([6]; male rats): 0.142 ± 0.014 µg/mL; exposure of APST-B as percentage of the exposure of APST-II ([6]; SD rats, males and females together, gavage 10 mg/kg): about 68.07%; Tmax [6, 8]: 1.6 h; Tmax [6, 9]: 2.5 h; AUC(0-t) [6, 10]: 3.77 ± 3.62 µg·h/mL; Cmax [6, 10]: 0.523 ± 0.417 µg/mL; AUC0-t of APST-B as percentage of that of APST-II ([6]; female rats, gavage 10 mg/kg): 65.9%; Tmax [6, 11]: 2 to 6 h; Tmax [6, 12]: 4 h; AUC0-t of APST-B as percentage of that of APST-II ([6]; male rats, gavage 10 mg/kg): ~119.0%; Cmax of APST-B as percentage of that of APST-II ([6]; male rats, gavage 10 mg/kg): about 132.3%; Tmax [6, 13]: 1 h; Tmax [6, 14]: 1 h; conversion of crystalline form (XRPD pattern and DSC pattern) [7]: complete conversion to Form II
CCOc1cc([C@@H](CS(C)(=O)=O)N2C(=O)c3cccc(NC(C)=O)c3C2=O)ccc1OC [Form I, (+)-2-[1-(3-ethoxy-4-methoxyphenyl)-2-methylsulfonylethyl]-4-acetylaminoisoindoline-1,3-dione]	–	–	–	–	–	–	–	–	–	–	–	–	–	stable	Essentially no	essentially no	–	essentially no	–	–	–
